{"source": "patent US4214091A", "about": "“Antibiotic No. 2-200 and process for producing thereof” (Chugai Seiyaku Kabushiki Kaisha, priority 1977, dated 1980)", "key": {"Bacteroides fragilis V-6": {"tested_on": "Bacteroides fragilis V-6", "assay": "MIC, GAM agar, anaerobic", "format": "cell-based", "settings": "V6, 40 h, read-out: Minimum inhibitory concentration (MIC)", "procedure": "(§1) Minimum inhibitory concentration (MIC) for gram\n(§2) Note: incubated at 37° C. for 40 hours on GAM agar medium (product\n(§3) of Nippon Seiyaku) using anaerobic incubator. Inoculated with 10^6"}, "Bacteroides fragilis V-7": {"tested_on": "Bacteroides fragilis V-7", "assay": "MIC, GAM agar, anaerobic", "format": "cell-based", "settings": "V7, 40 h, read-out: Minimum inhibitory concentration (MIC)", "procedure": "as §1, §2, §3"}, "Bacteroides fragilis V-8": {"tested_on": "Bacteroides fragilis V-8", "assay": "MIC, GAM agar, anaerobic", "format": "cell-based", "settings": "V8, 40 h, read-out: Minimum inhibitory concentration (MIC)", "procedure": "as §1, §2, §3"}, "[1]": {"tested_on": "Fusobacterium glutinosum 1006", "assay": "MIC, GAM agar, anaerobic", "format": "cell-based", "settings": "37° C., 40 hours, inoculum 10^6/ML, read-out: Minimum inhibitory concentration (MIC)", "procedure": "as §1, §2, §3"}, "[2]": {"tested_on": "Fusobacterium necroforum S-45", "assay": "MIC, GAM agar, anaerobic", "format": "cell-based", "settings": "S45, 37° C., 40 hours, inoculum 10^6/ML, read-out: Minimum inhibitory concentration (MIC)", "procedure": "as §1, §2, §3"}, "[3]": {"tested_on": "Klebsiella pneumoniae 3K25", "assay": "MIC by agar plate dilution method", "format": "cell-based", "settings": "3K25, 24 h, 37° C., read-out: Minimum inhibitory concentration", "procedure": "(§4) The test organisms were incubated by agar plate dilution method at 37° C. for 24 hours, after which their growth was observed. The test organisms were incubated on an NB medium (product of Eiken Kagaku) at 37° C. overnight, and each culture obtained was diluted 10^3 - to 10^4 -fold and stamped on an agar plate. The following agar plate media were used:\n(§5) NA: nutrient agar (product of Eiken Kagaku)\n(§6) NA+G6P: glucose-6-phosphoric acid (50 μg/ml) plus nutrient agar\n(§7) Anti-3A: antibiotic medium No. 3 agar (product of Difco)\n(§8) MHA: Mueller Hinton Agar (product of Eiken Kagaku)"}, "[4]": {"tested_on": "Pseudomonas aeruginosa M57740", "assay": "MIC by agar plate dilution method", "format": "cell-based", "procedure": "as §4, §5, §6, §7, §8"}, "Shigella sonnei": {"tested_on": "Shigella sonnei", "assay": "MIC by agar plate dilution method", "format": "cell-based", "settings": "24 h, 37° C., read-out: Minimum inhibitory concentration", "procedure": "as §4, §5, §6, §7, §8"}, "[5]": {"tested_on": "Staphylococcus aureus 209P", "assay": "MIC by agar plate dilution method", "format": "cell-based", "settings": "24 h, 37° C., read-out: Minimum inhibitory concentration", "procedure": "as §4, §5, §6, §7, §8"}, "[6]": {"assay": "acute toxicity, single administration", "settings": "mouse, in vivo, pH 7, read-out: median lethal dose (LD50)", "procedure": "(§9) The crystal of the antibiotic No. 2-200 obtained in Example 4 was floated in sterile distilled water, mixed with 5% caustic soda to adjust the pH to 7.0, and dissolved to make a solution. The solution was adminstered to 5-week-old ddY male mice to examine its actuate toxicity as well as delayed toxicity. During 10 days that followed the administration, the weight of each mouse, its food intake and water intake were measured."}, "5-week-old ddY male mice": {"tested_on": "5-week-old ddY male mice", "settings": "mouse, in vivo", "procedure": "as §9"}, "Solubility in solvents": {"assay": "Solubility in solvents", "format": "physicochemical"}, "[7]": {"tested_on": "bacteria of genus Salmonella", "assay": "antibacterial activity (general statement)", "format": "cell-based"}, "[8]": {"tested_on": "mutant of Pseudomonus aeroginosa, for example, G-75, M-57740", "assay": "growth inhibition of β-lactam-sensitive mutant", "format": "cell-based", "settings": "mutant sensitive to a β-lactam antibiotic", "text": "The present inventors further continued their studies and succeeded in isolating from a culture of actinomycete an effective substance as a crystal, which was subjected to X-ray diffractometry to determine its structure. […] This invention is a development of studies based on these findings."}}, "note": "Where two headings read alike, the source gives them in different places.", "data": [{"smiles": "C=CC(C)=CC1(C)SC(=O)C(C)=C1O", "note": "(single isomer, unassigned) [No. 2-200]", "values": [{"measurement": "MIC", "setting": "Bacteroides fragilis V-6", "result": 3.12, "unit": "µg/mL"}, {"measurement": "MIC", "setting": "Bacteroides fragilis V-7", "result": 12.5, "unit": "µg/mL"}, {"measurement": "MIC", "setting": "Bacteroides fragilis V-8", "result": 6.25, "unit": "µg/mL"}, {"measurement": "MIC", "setting": "[1]", "result": 100, "unit": "µg/mL"}, {"measurement": "MIC", "setting": "[2]", "result": 3.12, "unit": "µg/mL"}, {"measurement": "MIC", "setting": "[3]; Anti-3A", "result": 50, "unit": "µg/mL"}, {"measurement": "MIC", "setting": "[3]; MHA", "result": 50, "unit": "µg/mL"}, {"measurement": "MIC", "setting": "[3]; NA + G6P (50 μg/ml)", "result": 100, "unit": "µg/mL"}, {"measurement": "MIC", "setting": "[3]; NA", "result": 200, "unit": "µg/mL"}, {"measurement": "MIC", "setting": "[4]; M57740, 24 h, read-out: Minimum inhibitory concentration, Anti-3A, 37° C.", "result": 1.56, "unit": "µg/mL"}, {"measurement": "MIC", "setting": "[4]; M57740, 24 h, read-out: Minimum inhibitory concentration, NA + G6P (50 μg/ml), 37° C.", "result": 1.56, "unit": "µg/mL"}, {"measurement": "MIC", "setting": "[4]; M57740, 24 h, read-out: Minimum inhibitory concentration, NA, 37° C.", "result": 1.56, "unit": "µg/mL"}, {"measurement": "MIC", "setting": "[4]; M57740, MHA, 37° C., 24 hours, read-out: Minimum inhibitory concentration", "result": "≤ 0.78", "unit": "µg/mL"}, {"measurement": "MIC", "setting": "Shigella sonnei; Anti-3A", "result": 100, "unit": "µg/mL"}, {"measurement": "MIC", "setting": "Shigella sonnei; MHA", "result": 50, "unit": "µg/mL"}, {"measurement": "MIC", "setting": "Shigella sonnei; NA + G6P (50 μg/ml)", "result": 100, "unit": "µg/mL"}, {"measurement": "MIC", "setting": "Shigella sonnei; NA", "result": 100, "unit": "µg/mL"}, {"measurement": "MIC", "setting": "[5]; Anti-3A", "result": 25, "unit": "µg/mL"}, {"measurement": "MIC", "setting": "[5]; MHA", "result": 50, "unit": "µg/mL"}, {"measurement": "MIC", "setting": "[5]; NA + G6P (50 μg/ml)", "result": "≥ 50", "unit": "µg/mL"}, {"measurement": "MIC", "setting": "[5]; NA", "result": "> 50", "unit": "µg/mL"}, {"measurement": "LD50 at 240 h", "setting": "[6]; ip", "result": 810, "unit": "mg/kg"}, {"measurement": "LD50 at 240 h", "setting": "[6]; iv", "result": 705, "unit": "mg/kg"}, {"measurement": "delayed toxicity", "setting": "5-week-old ddY male mice", "result": "entirely free from delayed toxicity"}, {"measurement": "solubility", "setting": "Solubility in solvents; acetone", "result": "easily soluble"}, {"measurement": "solubility", "setting": "Solubility in solvents; alkaline water", "result": "easily soluble"}, {"measurement": "solubility", "setting": "Solubility in solvents; ethyl acetate", "result": "easily soluble"}, {"measurement": "solubility", "setting": "Solubility in solvents; methanol", "result": "easily soluble"}, {"measurement": "solubility", "setting": "Solubility in solvents; neutral to acidic water", "result": "slightly soluble"}, {"measurement": "antibacterial activity to bacteria of genus Salmonella", "setting": "[7]", "result": "particularly strong antibacterial activity"}, {"measurement": "inhibition of growth", "setting": "[8]", "result": "strongly inhibits the growth"}]}]}
